Results on eight molecules are retold here after patent US9458202B2, “Peptidomimetic macrocycles with improved properties” (Aileron Therapeutics, Inc., priority 2008, dated 2016).

The structures appear in SMILES notation. Where a SMILES comes first, the peptide text is derived from it. Bridges are numbered along the chain shown (N, C = ends). [ ]: non-standard residue; d: D form. The star is where a group is joined. S5 = C=CCCC[C@](C)(N)C(=O)O; Nle = CCCC[C@H](N)C(=O)O; Aib = CC(C)(N)C(=O)O; Propionyl = CCC(=O)*

The Cmax is the maximum level reached in the sampled fluid or tissue. The term half-life denotes the time in which the quantity being followed falls by half.

A short description of series [1]: Figure 5. The source says:
Table printed on a drawing sheet, Figure 5
The patent's description of the figure: FIG. 5 illustrates the PK profile in rat and monkey for a peptidomimetic macrocycle of the invention.
First reader's note: The first row combines the substance name (SP2) with the conditions dose, route and species in one cell.

Series [2] can be described thus: Figure 2. On the set-up: AUCall: concentration or dose not given beside the values. The note with it: for C0 / half-life / MRT: Sprague-Dawley, rat, plasma, iv; for MRT: read-out: MRTinf_obs. The protocol:
Table printed on a drawing sheet, Figure 2
Footnotes: 2 mg/mL iv bolus in Sprague-Dawley rats (10 mg/kg) / * 0.6 mg/mL iv bolus in Sprague-Dawley rats (3 mg/kg)
The patent's description of the figure: FIG. 2 lists the in vivo half-lives of peptidomimetic macrocycles of the invention. Half-lives were measured in Sprague Dawley rats after one intravenous bolus injection at 0.6 mg/mL or 2 mg/mL of each unlabeled peptidomimetic macrocycle at a 3 mg/kg or 10 mg/kg dose, respectively. Three animals were used per compound and concentrations were determined by mass-spectrometric analysis of blood levels (plasma).
First reader's note: An asterisk before the peptide name marks dosing at 3 mg/kg (0.6 mg/mL) instead of 10 mg/kg (2 mg/mL).

As for `CC[C@H](C)[C@H](NC(C)=O)C(=O)N[C@@H](Cc1c[nH]c2ccccc12)C(=O)N[C@H](C(=O)N[C@@H](C)C(=O)N[C@@H](CCC(N)=O)C(=O)N[C@@H](CCC(=O)O)C(=O)N[C@@H](CC(C)C)C(=O)N[C@@H](CCCNC(=N)N)C(=O)N[C@@]1(C)CCCC=CCCC[C@@](C)(C(=O)N[C@@H](Cc2ccccc2)C(=O)N[C@@H](CC(N)=O)C(=O)N[C@@H](C)C(=O)N[C@@H](Cc2ccc(O)cc2)C(=O)N[C@@H](Cc2ccc(O)cc2)C(=O)N[C@@H](C)C(=O)N[C@@H](CCCNC(=N)N)C(=O)N[C@@H](CCCNC(=N)N)C(N)=O)NC(=O)[C@H](CC(=O)O)NC(=O)CNC(=O)[C@H]([C@@H](C)CC)NC1=O)[C@@H](C)CC` (single isomer, unassigned) [SP2 3 mg/kg IV monkey], in series [1], the “AUC all” value was found to be 110.669 µg·h/mL, the maximum concentration (Cmax) was 51.54 µg/mL, the “MRTinf” value stood at 1.9 h and the “T ½” value was 2 h.

On to `CCC(=O)N[C@@H](CCCNC(=N)N)C(=O)N[C@@H](CC(N)=O)C(=O)N[C@H](C(=O)N[C@@H](C)C(=O)N[C@@H](CCCNC(=N)N)C(=O)N[C@@H](Cc1c[nH]cn1)C(=O)N[C@@H](CC(C)C)C(=O)N[C@@H](C)C(=O)N[C@@]1(C)CCCC=CCCC[C@@](C)(C(=O)N[C@@H](Cc2ccccc2)C(=O)N[C@@H](C)C(=O)N[C@@H](CCCNC(=N)N)C(=O)N[C@@H](CO)C(=O)N[C@H](C(N)=O)[C@@H](C)CC)NC(=O)[C@H](CC(=O)O)NC(=O)C(C)(C)NC(=O)[C@H](C(C)C)NC1=O)[C@@H](C)CC` [SP8] (Propionyl-RNIARHLA[S5]V[Aib]D[S5]FARSI-NH2; staple 9-13), for which, in series [2], the “AUCall” value worked out at 73.751 µg·h/mL, the “Cl_obs” value came out at 1.997 mL/min/kg, the C0 was determined as 148 µg/mL and the half-life was 19.9 h. Also, the MRT in series [2] turned out to be 2.3 h.

Consider `CC[C@H](C)[C@H](NC(C)=O)C(=O)N[C@@H](Cc1c[nH]c2ccccc12)C(=O)N[C@H](C(=O)N[C@@H](C)C(=O)N[C@@H](CCC(N)=O)C(=O)N[C@@H](CCC(=O)O)C(=O)N[C@@H](CC(C)C)C(=O)N[C@@H](CCCNC(=N)N)C(=O)N[C@@]1(C)CCCC=CCCC[C@@](C)(C(=O)N[C@@H](Cc2ccccc2)C(=O)N[C@@H](CC(N)=O)C(=O)N[C@@H](C)C(=O)N[C@@H](Cc2ccc(O)cc2)C(=O)N[C@@H](Cc2ccc(O)cc2)C(=O)N[C@@H](C)C(=O)N[C@@H](CCCNC(=N)N)C(=O)N[C@@H](CCCNC(=N)N)C(N)=O)NC(=O)[C@H](CC(=O)O)NC(=O)CNC(=O)[C@H]([C@@H](C)CC)NC1=O)[C@@H](C)CC` (single isomer, unassigned) [SP2], for which, in series [2], the “AUCall” value came to 170.685 µg·h/mL, the “Cl_obs” value came to 1.36 mL/min/kg, the C0 is 70.3 µg/mL and the half-life is 5.7 h. Further, the MRT in series [2] came to 3.1 h.

In the case of `CCCC[C@H](NC(=O)[C@]1(C)CCCC=CCCC[C@](C)(NC(=O)[C@H](C)NC(=O)[C@H](CC(C)C)NC(=O)[C@H](Cc2c[nH]cn2)NC(=O)[C@H](CCCNC(=N)N)NC(=O)[C@H](C)NC(=O)[C@@H](NC(=O)[C@H](CC(N)=O)NC(=O)[C@H](CCCNC(=N)N)NC(=O)CC)[C@@H](C)CC)C(=O)N[C@@H](C(C)C)C(=O)NC(C)(C)C(=O)N[C@@H](CC(=O)O)C(=O)N1)C(=O)N[C@@H](CC(=O)O)C(=O)N[C@@H](CCCNC(=N)N)C(=O)N[C@@H](CO)C(=O)N[C@H](C(N)=O)[C@@H](C)CC` [SP5] (Propionyl-RNIARHLA[S5]V[Aib]D[S5][Nle]DRSI-NH2; staple 9-13), in series [2], the “AUCall” value came out at 127.629 µg·h/mL, the “Cl_obs” value came to 1.52 mL/min/kg, the C0 worked out at 271 µg/mL and the half-life is 2.4 h. Moreover, the MRT in series [2] is 0.6 h.

On to `CC[C@H](C)[C@H](NC(=O)[C@H](CO)NC(=O)[C@H](CCCNC(=N)N)NC(=O)[C@H](C)NC(=O)[C@H](C)NC(=O)[C@]1(C)CCCC=CCCC[C@](C)(NC(=O)[C@H](C)NC(=O)[C@H](CC(C)C)NC(=O)[C@H](Cc2c[nH]cn2)NC(=O)[C@H](CCCNC(=N)N)NC(=O)[C@H](C)NC(=O)[C@@H](NC(=O)[C@H](CC(N)=O)NC(=O)[C@H](CCCNC(=N)N)NC(=O)[C@@H](NC(=O)[C@@H](NC(=O)[C@H](CC(=O)O)NC(C)=O)[C@@H](C)CC)[C@@H](C)CC)[C@@H](C)CC)C(=O)N[C@@H](C(C)C)C(=O)NC(C)(C)C(=O)N[C@@H](CC(=O)O)C(=O)N1)C(N)=O` [SP7] (Ac-DIIRNIARHLA[S5]V[Aib]D[S5]AARSI-NH2; staple 12-16), for which, in series [2], the “AUCall” value is 402.899 µg·h/mL, the “Cl_obs” value came to 0.398 mL/min/kg, the C0 turned out to be 158 µg/mL and the half-life was 3.9 h. Further, the MRT in series [2] worked out at 3.1 h.

On to `CC[C@H](C)[C@H](NC(C)=O)C(=O)N[C@@H](Cc1c[nH]c2ccccc12)C(=O)N[C@H](C(=O)N[C@@H](C)C(=O)N[C@@H](CCC(N)=O)C(=O)N[C@@H](CCC(N)=O)C(=O)N[C@@H](CC(C)C)C(=O)N[C@@H](CCCNC(=N)N)C(=O)N[C@@]1(C)CCCC=CCCC[C@@](C)(C(=O)N[C@@H](Cc2ccccc2)C(=O)N[C@@H](CC(N)=O)C(=O)N[C@@H](C)C(=O)N[C@@H](Cc2ccc(O)cc2)C(=O)N[C@@H](Cc2ccc(O)cc2)C(=O)N[C@@H](C)C(=O)N[C@@H](CCCNC(=N)N)C(=O)N[C@@H](CCCNC(=N)N)C(N)=O)NC(=O)[C@H](CC(=O)O)NC(=O)CNC(=O)[C@H]([C@@H](C)CC)NC1=O)[C@@H](C)CC` [SP3], for which, in series [2], the “AUCall” value came out at 156.183 µg·h/mL, the “Cl_obs” value was determined as 1.1 mL/min/kg, the C0 came to 186 µg/mL and the half-life is 11.1 h. Also, the MRT in series [2] came out at 4.3 h.

Take `CCCC[C@H](NC(=O)[C@]1(C)CCCC=CCCC[C@](C)(NC(=O)[C@H](C)NC(=O)[C@H](CC(C)C)NC(=O)[C@H](Cc2c[nH]cn2)NC(=O)[C@H](CCCNC(=N)N)NC(=O)[C@H](C)NC(=O)[C@@H](NC(=O)[C@H](CC(N)=O)NC(=O)[C@H](CCCNC(=N)N)NC(=O)CC)[C@@H](C)CC)C(=O)N[C@@H](C(C)C)C(=O)NCC(=O)N[C@@H](CC(=O)O)C(=O)N1)C(=O)NC(C)(C)C(=O)N[C@@H](CCCNC(=N)N)C(=O)N[C@@H](CO)C(=O)N[C@H](C(N)=O)[C@@H](C)CC` [SP10] (Propionyl-RNIARHLA[S5]VGD[S5][Nle][Aib]RSI-NH2; staple 9-13): in series [2], the “AUCall” value was found to be 35.591 µg·h/mL, the “Cl_obs” value was 3.605 mL/min/kg, the C0 worked out at 51.7 µg/mL and the half-life is 21.8 h. Further, the MRT in series [2] is 3 h.

For the molecule `CCCC[C@H](NC(=O)[C@]1(C)CCCC=CCCC[C@](C)(NC(=O)[C@H](C)NC(=O)[C@H](CC(C)C)NC(=O)[C@]2(C)CCCC=CCCCCC(=O)N[C@@H]([C@@H](C)CC)C(=O)N[C@@H](C)C(=O)N[C@@H](CCCNC(=N)N)C(=O)N2)C(=O)N[C@@H](C(C)C)C(=O)NCC(=O)N[C@@H](CC(=O)O)C(=O)N1)C(=O)N[C@@H](CC(=O)O)C(=O)N[C@@H](CCCNC(=N)N)C(=O)N[C@@H](CO)C(=O)N[C@H](C(N)=O)[C@@H](C)CC` [*SP12], in series [2], the “AUCall” value turned out to be 69.035 µg·h/mL, the “Cl_obs” value worked out at 0.503 mL/min/kg, the C0 came to 6.4 µg/mL and the half-life was 5.9 h. In addition, the MRT in series [2] came out at 9.2 h.
